Laboratory results as given in ChEMBL document CHEMBL1201862, “PubChem BioAssay data set” (2004).
Active and inactive are the calls of the source.

How the values were obtained:
[1] = molecular target: G-protein coupled receptor 55 (Homo sapiens, UniProt Q9Y2T6); test: inhibition of LPI-stimulated GPR55 beta-arrestin translocation – imaging, U2OS, beta-arrestin-GFP, LPI agonist, primary screen (AID 2013); assay type: functional;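 further: antagonist potency measured as reduced agonist-driven arrestin aggregation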
Chain of G-protein coupled receptor 55 (Q9Y2T6 whole entry, the tested form may be a part): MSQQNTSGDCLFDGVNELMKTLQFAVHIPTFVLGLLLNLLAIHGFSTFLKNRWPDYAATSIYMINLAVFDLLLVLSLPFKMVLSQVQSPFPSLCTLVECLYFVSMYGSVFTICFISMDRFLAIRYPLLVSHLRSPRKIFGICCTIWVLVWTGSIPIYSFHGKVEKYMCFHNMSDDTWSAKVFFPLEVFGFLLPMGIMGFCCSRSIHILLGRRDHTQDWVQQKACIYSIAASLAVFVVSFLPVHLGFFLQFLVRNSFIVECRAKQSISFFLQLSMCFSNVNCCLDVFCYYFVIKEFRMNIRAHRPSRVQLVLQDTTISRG

[2] = molecular target: Nucleotide-binding oligomerization domain-containing protein 2 (Homo sapiens, UniProt Q9HC29); test: inhibition of NOD2-driven NF-kB reporter – cell-based, luminescence, uHTS, HEK293 (AID 1566); assay type: functional
Chain of Nucleotide-binding oligomerization domain-containing protein 2 (Q9HC29 whole entry, the tested form may be a part): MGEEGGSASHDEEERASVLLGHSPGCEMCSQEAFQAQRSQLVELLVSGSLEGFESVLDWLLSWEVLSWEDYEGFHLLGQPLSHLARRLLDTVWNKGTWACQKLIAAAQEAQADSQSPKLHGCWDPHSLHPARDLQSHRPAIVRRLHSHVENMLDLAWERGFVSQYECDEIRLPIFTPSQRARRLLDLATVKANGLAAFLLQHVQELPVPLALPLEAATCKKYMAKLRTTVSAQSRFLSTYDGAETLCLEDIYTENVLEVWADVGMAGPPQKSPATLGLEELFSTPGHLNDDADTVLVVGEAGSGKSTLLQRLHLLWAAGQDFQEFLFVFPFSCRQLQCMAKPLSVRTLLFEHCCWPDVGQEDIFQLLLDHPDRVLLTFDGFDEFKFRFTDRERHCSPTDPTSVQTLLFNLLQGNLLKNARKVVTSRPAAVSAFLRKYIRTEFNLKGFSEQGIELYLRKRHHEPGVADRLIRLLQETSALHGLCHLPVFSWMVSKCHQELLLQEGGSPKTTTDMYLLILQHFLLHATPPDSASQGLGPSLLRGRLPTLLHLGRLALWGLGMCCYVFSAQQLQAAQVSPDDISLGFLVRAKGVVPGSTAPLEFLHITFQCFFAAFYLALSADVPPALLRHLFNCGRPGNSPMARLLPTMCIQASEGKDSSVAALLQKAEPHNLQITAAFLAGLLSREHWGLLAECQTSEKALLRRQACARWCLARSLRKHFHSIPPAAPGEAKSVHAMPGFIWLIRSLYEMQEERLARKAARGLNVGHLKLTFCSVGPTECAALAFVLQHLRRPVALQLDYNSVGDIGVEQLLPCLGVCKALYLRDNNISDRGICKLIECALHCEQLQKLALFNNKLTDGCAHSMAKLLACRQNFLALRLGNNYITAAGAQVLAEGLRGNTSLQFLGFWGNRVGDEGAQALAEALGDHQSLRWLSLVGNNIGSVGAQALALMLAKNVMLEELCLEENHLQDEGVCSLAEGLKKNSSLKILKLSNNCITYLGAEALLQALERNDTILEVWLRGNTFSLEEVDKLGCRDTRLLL

[3] = molecular target: T1, Mucolipin-3 (Homo sapiens, UniProt Q8TDD5); test: Fluorescence counterscreen assay for […] agonists: dose response cell-based high-throughput screening assay to identify agonists of the transient receptor potential channel ML3 (TRPML3). [Related pubchem assays: 1424, 1448 ]; assay type: functional
T1 sequence (Q8TDD5 whole entry): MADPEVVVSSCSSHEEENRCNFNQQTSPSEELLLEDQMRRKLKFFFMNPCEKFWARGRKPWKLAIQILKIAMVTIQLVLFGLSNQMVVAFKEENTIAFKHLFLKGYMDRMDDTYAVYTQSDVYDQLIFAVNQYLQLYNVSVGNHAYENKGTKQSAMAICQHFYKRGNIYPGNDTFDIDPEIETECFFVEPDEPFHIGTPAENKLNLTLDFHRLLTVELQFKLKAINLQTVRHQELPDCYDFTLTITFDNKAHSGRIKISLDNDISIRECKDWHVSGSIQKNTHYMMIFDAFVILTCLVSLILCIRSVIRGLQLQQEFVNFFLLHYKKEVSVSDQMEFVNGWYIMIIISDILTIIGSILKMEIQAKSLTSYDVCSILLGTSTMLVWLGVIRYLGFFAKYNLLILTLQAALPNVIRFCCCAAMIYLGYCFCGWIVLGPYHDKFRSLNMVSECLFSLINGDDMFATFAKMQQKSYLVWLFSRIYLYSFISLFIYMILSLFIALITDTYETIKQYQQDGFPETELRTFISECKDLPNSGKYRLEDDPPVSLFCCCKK

[4] = blockers of CRF-binding protein–CRF-R2 complex – cell-based, uHTS hits, 384-well, dose response (AID 651639); assay type: functional, Homo sapiens; conditions: read-out: IC50_Mean
[5] = test system: HEK293; test: inhibition of NOD1-driven NF-kB reporter – cell-based, luminescence, uHTS, primary screen (AID 1578); assay type: functional; conditions: Homo sapiens
[6] = test system: HEK293; test: cells; assay type: functional, cell-based; conditions: Homo sapiens
[7] = molecular target: T2, Corticotropin-releasing factor receptor 2/Corticotropin-releasing factor-binding protein (Homo sapiens, UniProt P24387+Q13324); test: Dose Response confirmation of uHTS hits for small molecule antagonists of the CRF-binding protein and CRF-R2 receptor complex.; assay type: functional; conditions: read-out: IC50_Mean
T2 sequence (Q13324 whole entry): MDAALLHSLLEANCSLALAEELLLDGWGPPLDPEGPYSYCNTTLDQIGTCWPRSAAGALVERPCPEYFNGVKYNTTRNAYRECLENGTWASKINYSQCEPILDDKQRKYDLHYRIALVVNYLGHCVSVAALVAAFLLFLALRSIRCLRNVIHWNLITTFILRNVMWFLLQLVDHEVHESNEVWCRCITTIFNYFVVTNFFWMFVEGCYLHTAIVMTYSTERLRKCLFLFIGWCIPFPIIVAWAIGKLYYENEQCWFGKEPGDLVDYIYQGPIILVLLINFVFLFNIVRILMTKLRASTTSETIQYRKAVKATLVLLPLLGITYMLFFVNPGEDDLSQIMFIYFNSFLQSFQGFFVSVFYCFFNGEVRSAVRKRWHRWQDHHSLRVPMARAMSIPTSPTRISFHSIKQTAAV
T2 sequence (P24387 whole entry): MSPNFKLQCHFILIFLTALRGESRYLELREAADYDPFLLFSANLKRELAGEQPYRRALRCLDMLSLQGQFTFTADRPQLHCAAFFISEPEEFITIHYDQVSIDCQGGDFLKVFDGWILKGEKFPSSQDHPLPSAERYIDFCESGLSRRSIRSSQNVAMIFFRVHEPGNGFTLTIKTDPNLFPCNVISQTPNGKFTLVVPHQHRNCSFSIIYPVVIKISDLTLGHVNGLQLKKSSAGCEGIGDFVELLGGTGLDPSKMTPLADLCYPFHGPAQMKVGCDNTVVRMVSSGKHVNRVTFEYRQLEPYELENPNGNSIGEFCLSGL

[8] = test system: HEK293; test: NOD2 signaling inhibitors in MDP-stimulated cells, cell-based, uHTS, luminescence (AID 2001); assay type: functional; conditions: Homo sapiens
[9] = molecular target: Ion channel NompC (Danio rerio, UniProt Q7T1G6); test: Dose response cell-based high-throughput screening assay for agonists of the transient receptor potential channel N1 (TRPN1). [Related pubchem assays (depositor defined):AID1424, AID1448]; assay type: functional
Chain of Ion channel NompC (Q7T1G6 whole entry): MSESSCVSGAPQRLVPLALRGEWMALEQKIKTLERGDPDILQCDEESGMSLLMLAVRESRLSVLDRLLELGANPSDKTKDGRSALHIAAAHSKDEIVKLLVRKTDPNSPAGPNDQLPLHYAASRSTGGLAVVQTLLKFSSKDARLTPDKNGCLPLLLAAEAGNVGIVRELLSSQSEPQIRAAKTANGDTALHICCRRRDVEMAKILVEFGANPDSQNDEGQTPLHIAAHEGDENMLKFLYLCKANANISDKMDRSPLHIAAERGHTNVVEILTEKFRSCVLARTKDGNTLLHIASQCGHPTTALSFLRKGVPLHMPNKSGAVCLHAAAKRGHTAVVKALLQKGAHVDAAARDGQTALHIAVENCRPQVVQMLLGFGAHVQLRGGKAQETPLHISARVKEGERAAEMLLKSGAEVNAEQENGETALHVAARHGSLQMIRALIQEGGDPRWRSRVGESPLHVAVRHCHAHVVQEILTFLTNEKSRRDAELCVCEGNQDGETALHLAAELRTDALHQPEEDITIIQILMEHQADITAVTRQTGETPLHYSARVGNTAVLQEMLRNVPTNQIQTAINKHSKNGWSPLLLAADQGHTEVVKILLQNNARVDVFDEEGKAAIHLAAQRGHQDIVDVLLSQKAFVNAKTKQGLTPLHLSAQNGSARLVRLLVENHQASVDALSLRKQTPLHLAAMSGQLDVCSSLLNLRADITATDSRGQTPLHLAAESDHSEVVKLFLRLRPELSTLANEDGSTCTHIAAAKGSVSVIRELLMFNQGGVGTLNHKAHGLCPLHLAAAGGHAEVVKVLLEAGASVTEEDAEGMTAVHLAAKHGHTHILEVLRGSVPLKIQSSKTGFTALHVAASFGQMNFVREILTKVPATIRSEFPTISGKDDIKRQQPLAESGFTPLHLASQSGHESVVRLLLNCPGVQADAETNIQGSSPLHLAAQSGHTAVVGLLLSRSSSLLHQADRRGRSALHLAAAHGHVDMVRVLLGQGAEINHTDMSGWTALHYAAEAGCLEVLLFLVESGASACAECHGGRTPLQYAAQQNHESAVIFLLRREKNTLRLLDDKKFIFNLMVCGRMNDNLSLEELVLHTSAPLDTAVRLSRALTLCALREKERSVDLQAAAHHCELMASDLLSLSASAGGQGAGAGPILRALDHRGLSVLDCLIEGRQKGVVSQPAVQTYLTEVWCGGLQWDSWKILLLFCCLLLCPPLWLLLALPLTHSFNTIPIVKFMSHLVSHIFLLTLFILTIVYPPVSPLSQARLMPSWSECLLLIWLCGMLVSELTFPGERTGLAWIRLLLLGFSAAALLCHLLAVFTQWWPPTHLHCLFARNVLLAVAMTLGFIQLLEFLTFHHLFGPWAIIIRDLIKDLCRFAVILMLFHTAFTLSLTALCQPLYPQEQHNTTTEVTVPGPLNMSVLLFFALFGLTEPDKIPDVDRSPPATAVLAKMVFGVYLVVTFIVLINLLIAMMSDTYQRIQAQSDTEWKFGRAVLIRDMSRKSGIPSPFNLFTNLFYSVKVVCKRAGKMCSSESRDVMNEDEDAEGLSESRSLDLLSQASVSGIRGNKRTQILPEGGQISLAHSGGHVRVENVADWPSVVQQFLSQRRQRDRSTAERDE

[10] = molecular target: T2, Corticotropin-releasing factor receptor 2/Corticotropin-releasing factor-binding protein; test: activators of CRF receptor 2 with binding protein – uHTS hits, confirmation (AID 602473); assay type: functional; conditions: read-out: EC50_Mean
[11] = test system: HEK293; test: cells; assay type: functional, cell-based; conditions: Homo sapiens; remark: listed apart in the source
[12] = test system: HEK293; test: cells; assay type: functional, cell-based; conditions: Homo sapiens; remark: listed apart in the source

Question: Which IC50 [1] does the source give for `NC(=O)c1cc(-c2ccccc2)nc(N2CCOCC2)n1` here?
Answer: Its IC50 is 7.26 µM (active).

Question: For `COC(=O)c1ccc(NC(=O)c2ccccc2NS(=O)(=O)c2ccccc2)cc1`, which EC50 [2] is on record?
Answer: Its EC50 is 6.09 µM (active).

Question: And the EC50 [3]?
Answer: The EC50 was > 29.9 µM (not active).

Question: And the IC50 [4]?
Answer: Its IC50 is > 20 µM (inactive).

Question: And the EC50 [5]?
Answer: Its EC50 is 2.34 µM (active).

Question: What about the IC50 [6] of the same compound?
Answer: The IC50 was > 20 µM (inactive).

Question: And the IC50 [7]?
Answer: The IC50 was 0.506 µM (active).

Question: What about the IC50 [8] of the same compound?
Answer: Its IC50 is 7.55 µM (active).

Question: And the EC50 [9]?
Answer: Its EC50 is > 29.9 µM (inactive).

Question: And the EC50 [10]?
Answer: The EC50 was > 53 µM (inactive).

Question: And the IC50 [11]?
Answer: Its IC50 is 12.9 µM (active).

Question: And the IC50 [12]?
Answer: The IC50 was > 20 µM (inactive).
